Experimental data reported in the supplement of paper PMC6470124.

Columns and labels:
[1] = LC retention time (Atlantis T3, 5-95% MeOH gradient, 0.1% formic acid); higher = more retained / less polar
Outline: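 Retention times refer to reference standards measured by liquid chromatography with high-resolution tandem mass spectrometry. Separation was on an Atlantis T3 C18 column (3 × 150 mm, 3 μm) at 0.3 mL/min with a 5 to 95% methanol gradient over 17.5 min, both solvents carrying 0.1% formic acid. Positive and negative electrospray were run separately on a QExactive Plus, and TraceFinder peak integration (5 ppm tolerance, at least three points per peak) was reviewed by hand.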

[2] = absolute recovery over vacuum-assisted evaporative concentration; higher = better recovery; conditions: enrichment method: VEC
Outline: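 Water samples (influent 6 mL, effluent 15 mL, surface and nanopure water 60 mL) were spiked with standards before concentration, after concentration or not at all, at 200 ng/L (nanopure/surface) or 1000 ng/L (wastewater), with class- and compound-specific adjustments. They were evaporated at 55 °C and 20 mbar to about 0.3 mL, brought to 0.4 mL and centrifuged. Internal standards were added afterwards and samples were analysed by LC-HRMS/MS. Absolute recovery was (response ratio pre − unspiked)/(post − unspiked) × 100, using averages of ≥ 2 replicates.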

[3] = absolute recovery over mixed-bed multilayer solid-phase extraction; higher = better recovery; conditions: enrichment method: SPE
Outline: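 Elution from a three-layer mixed-bed cartridge used basic followed by acidic ethyl acetate/methanol, after loading either 1000 mL of unfiltered nanopure water or 100–250 mL of wastewater that had been set to pH 6.5 and glass-fibre filtered. Standards went in before or after extraction, or were left out, at 200 ng/L (water) or 1000 ng/L (wastewater), with class exceptions. Internal standards were added afterwards, and measurement was by liquid chromatography with high-resolution tandem mass spectrometry in both ionisation modes. For absolute recovery, background-corrected response ratios of pre-spiked samples were compared with those of post-spiked samples and averaged over at least two replicates.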

SMILES	LC retention time [1]	absolute recovery ([2]; wastewater effluent)	absolute recovery ([2]; wastewater influent)	absolute recovery ([3]; nanopure water)	absolute recovery ([3]; surface water)	absolute recovery ([3]; wastewater effluent)	absolute recovery ([3]; wastewater influent)
OC(Cc1ccccc1Cl)(Cn1cncn1)C1(Cl)CC1 (stereo unspecified) [Prothioconazole-desethio]	20.6 min	141%	128%	109%	86.3%	104%	104%
Nc1c(I)c(N)c(I)c(C(=O)[O-])c1I [3-5-Diamino-2-4-6-triiodobenzoic-acid]	15.4 min	104%	97.2%	95.4%	91.9%	68.2%	82.4%
CN(C)C(=[NH2+])NC(N)=[NH2+] [Metformin]	3.25 min	118%	–	88.2%	–	–	–
COc1cc(OC)nc(NC(=O)[N-]S(=O)(=O)c2ncccc2C(=O)N(C)C)n1 [Nicosulfuron]	16.9 min	103%	102%	95.8%	97.3%	96.2%	95.7%
CC(C)N1C(=O)N(c2ccccc2)CSC1=NC(C)(C)C [Buprofezin]	22 min	75.3%	100%	67.9%	86.2%	87.5%	118%
CC=CC(=O)N(CC)C(CC)C(=O)N(C)C (stereo unspecified) [Crotethamide]	15.9 min	97.5%	94.6%	106%	94.6%	86.1%	121%
COc1ccc2c3c1OC1C(=O)CCC4C(C2)[NH+](C)CCC314 (stereo unspecified) [Hydrocodone]	9.79 min	103%	100%	82.5%	89.4%	93.1%	89.3%
CCCC(NOCC)=C1C(=O)CC(C2CCCSC2)CC1=O (stereo unspecified) [Cycloxydim]	22.3 min	87.3%	76.6%	73.9%	78.4%	76.3%	92.2%
CCOC(=O)C1CC(=O)C(=C([O-])C2CC2)C(=O)C1 (stereo unspecified) [Trinexapac-ethyl]	18.8 min	102%	93.4%	93.6%	93.1%	90.1%	93.2%
CCC(C)C(=O)OC1CC(O)C=C2C=CC(C)C(CCC(O)CC(O)CC(=O)[O-])C21 (stereo unspecified) [Pravastatin]	18.4 min	99.2%	103%	92.4%	91.2%	94%	95.1%
O=c1[nH+]c[n-]c2c1ncn2C1CCC(CO)O1 (stereo unspecified) [Didanosin]	9.79 min	84.9%	–	107%	85.1%	83.5%	102%
O=C([O-])C(c1ccccc1Cl)[NH+]1CCc2sccc2C1 (stereo unspecified) [Clopidogrel-Carboxylic-Acid]	14.8 min	103%	102%	93.2%	94%	91.1%	92.8%
Nc1nc(=O)n(C2CSC(CO)O2)cc1F (stereo unspecified) [Emtricitabine]	9.72 min	103%	101%	75.9%	87.2%	84.2%	85.2%
CCCCCCCCCCCC[N+](C)(C)C [Dodecyltrimethylammonium]	17.9 min	99.1%	–	84.2%	114%	69.5%	33.9%
Clc1ccccc1C[NH+]1CCc2sccc2C1 [Ticlopidin]	12.7 min	51%	45.4%	83.9%	85.9%	84.5%	81.1%
CC(C)c1ccc(N)cc1 [4-Isopropylanilin]	10.4 min	93.8%	96.6%	95.5%	80.7%	80.1%	84.8%
COc1ccc2c(c1)C13CCCCC1C(C2)[NH+](C)CC3 (stereo unspecified) [Dextromethorphan]	14.5 min	102%	107%	86.8%	94.5%	93.4%	77.6%
O=c1[nH]cc(F)c(=O)[nH]1 [5-Fluorouracil]	5.37 min	79.1%	69.1%	5%	7.7%	7.4%	9.3%
CCCC(Cn1cncn1)c1ccc(Cl)cc1Cl (stereo unspecified) [Penconazol]	20.9 min	105%	105%	98.5%	97.1%	100%	87.3%
NC(=O)N=C1SCCN1Cc1ccc(Cl)nc1 [Thiacloprid-amide]	13.2 min	106%	104%	109%	108%	104%	96.3%
C[NH+]=CNc1ccc(C)cc1C [N-(2-4-dimethylphenyl)-N-methylformamidine]	11.1 min	76.9%	79.1%	35.1%	27.7%	47.9%	52.5%
C#CC[N+](C)([O-])C(C)Cc1ccccc1 (stereo unspecified) [Deprenyl-N-Oxide]	12.2 min	102%	106%	68.6%	71.5%	70.5%	77.3%

SMILES	LC retention time [1]	absolute recovery ([2]; wastewater effluent)	absolute recovery ([2]; wastewater influent)	absolute recovery ([3]; nanopure water)	absolute recovery ([3]; surface water)	absolute recovery ([3]; wastewater effluent)	absolute recovery ([3]; wastewater influent)
CCOC(=O)C1=CC(OC(CC)CC)C(NC(C)=O)C([NH3+])C1 (stereo unspecified) [Oseltamivir]	14.7 min	101%	107%	69.9%	77.5%	77.3%	80.4%
CCN(CC)C(=O)C(C)Oc1cccc2ccccc12 (stereo unspecified) [Napropamid]	20.3 min	88.4%	90.9%	96.6%	90.8%	89.3%	96.1%
Cc1cc(C(C)(C)C)cc(C)c1CC1=[NH+]CCN1 [Xylometazolin]	15.7 min	102%	106%	87.3%	84%	85.4%	97.2%
C[NH+](C)CCC=C1c2ccccc2CCc2ccccc21 [Amitriptyline E]	16.1 min	110%	108%	84.5%	106%	96.3%	58.1%
CC(C)[NH2+]CC(O)COc1ccc(COCCOC(C)C)cc1 (stereo unspecified) [Bisoprolol]	13.8 min	110%	98.1%	103%	91.8%	91.4%	89.8%
CN1C(=O)CC(C)(c2ccccc2)C1=O (stereo unspecified) [Methsuximide]	16.6 min	99%	85.5%	99.2%	84.5%	89.9%	89.6%
CN1C(=O)CCC1c1cccnc1 (stereo unspecified) [Cotinine]	6.11 min	100%	–	109%	135%	112%	–
CCNC(=O)C(C)OC(=O)Nc1ccccc1 (stereo unspecified) [Carbetamid]	16.5 min	118%	101%	94.2%	100%	94.9%	88.7%
CC(Cc1ccc(C(C)(C)C)cc1)C[NH+]1CCCCC1 (stereo unspecified) [Fenpropidin]	16.4 min	146%	46.3%	–	107%	94.1%	67.3%
Cc1cncc(C(=O)[O-])c1 [5-Methylpyridine-3-carboxylic-acid]	6.89 min	94.9%	141%	109%	34.2%	90.9%	100%
C#CC[NH+](C)Cc1ccccc1 [N-Methyl-N-propargylbenzylamine]	11.4 min	73.6%	72.1%	62.3%	66.9%	62.4%	78.1%
CC(=O)Nc1ccc(S(=O)(=O)[N-]c2ncccn2)cc1 [N4-Acetyl-Sulfadiazin]	12 min	113%	99.5%	98.6%	93.8%	89.2%	92.8%
CC#Cc1cc(C)nc(Nc2ccccc2)n1 [Mepanipyrim]	20.2 min	95.3%	62.1%	93.5%	107%	103%	94.9%
O=C(NCc1ncc(C(F)(F)F)cc1Cl)c1c(Cl)cccc1Cl [Fluopicolide]	19.6 min	115%	109%	95.7%	104%	97.2%	93.4%
CSC1=NC(C)(c2ccccc2)C(=O)N1Nc1ccccc1 (stereo unspecified) [Fenamidone]	19.2 min	106%	98.7%	100%	107%	101%	91.6%
O=[N+]([O-])C(Br)(CO)CO [Bronopol]	9.24 min	52.8%	–	13.9%	6.4%	7%	7.8%
COc1ccc(C(C[N+](C)(C)[O-])C2(O)CCCCC2)cc1 (stereo unspecified) [Venlafaxine-N-Oxide]	14.6 min	105%	107%	93.2%	92.8%	94.6%	79.7%
CCc1ccc(C(=O)NN(C(=O)c2cc(C)cc(C)c2)C(C)(C)C)cc1 [Tebufenozid]	20.5 min	102%	98.1%	104%	111%	98.7%	103%
CCC(CC)OC1C=C(C(=O)[O-])CC([NH3+])C1NC(C)=O (stereo unspecified) [Oseltamivir-carboxylat]	12.5 min	105%	105%	75.9%	24.7%	44.2%	60.1%
Oc1cc(Cl)ccc1Oc1ccc(Cl)cc1Cl [Triclosan]	21.9 min	–	117%	97.2%	90.7%	90%	92.3%
CC(=O)Nc1c(I)c(NC(C)=O)c(I)c(C(=O)[O-])c1I [Diatrizoate (=Amidotrizoic-acid)]	10 min	100%	102%	69%	74.5%	73.8%	65.1%
Fc1ccc(Oc2ccnc3cc(Cl)cc(Cl)c23)cc1 [Quinoxyfen]	22.9 min	69.8%	–	63.7%	76.4%	78.1%	53.1%
